Assay results: patent publication US8304417B2, “Crystalline forms of 4-(6-chloro-2,3-methylenedioxyanilino)-7-[2-(4-methylpiperazin-1-yl)ethoxy]-5-tetrahydropyran-4-yloxyquinazoline” (AstraZeneca AB, priority 2004, dated 2012)
Entries after “also recorded” stand apart in the source; their conditions may differ.

Legend:
[1] = Solid-state form stability (storage, presence or absence of water); assay type: physicochemical
[2] = Hygroscopicity of the crystalline form (exposure to water vapour); assay type: physicochemical; details: solid form, exposure to water vapour during storage

Row | Molecule | stability of the physical form [1] | hygroscopicity [2]
1 | 4-(6-chloro-2,3-methylenedioxyanilino)-7-[2-(4-methylpiperazin-1-yl)ethoxy]-5-tetrahydropyran-4-yloxyquinazoline sesquifumarate salt [AZD0530 sesquifumarate tetrahydrate] | of reasonable stability | 
2 | CN1CCN(CCOc2cc(OC3CCOCC3)c3c(Nc4c(Cl)ccc5c4OCO5)ncnc3c2)CC1.O=C(O)/C=C/C(=O)O.O=C(O)/C=C/C(=O)O [AZD0530 difumarate, 4-(6-chloro-2,3-methylenedioxyanilino)-7-[2-(4-methylpiperazin-1-yl)ethoxy]-5-tetrahydropyran-4-yloxyquinazoline difumarate salt] | does not readily change form during storage if exposed to water vapour | substantially non-hygroscopic
3 | CN1CCN(CCOc2cc(OC3CCOCC3)c3c(Nc4c(Cl)ccc5c4OCO5)ncnc3c2)CC1.O.O.O [AZD0530 trihydrate, 4-(6-chloro-2,3-methylenedioxyanilino)-7-[2-(4-methylpiperazin-1-yl)ethoxy]-5-tetrahydropyran-4-yloxyquinazoline trihydrate] | stable in the presence of water | 
4 | CN1CCN(CCOc2cc(OC3CCOCC3)c3c(Nc4c(Cl)ccc5c4OCO5)ncnc3c2)CC1 [anhydrous AZD0530, 4-(6-chloro-2,3-methylenedioxyanilino)-7-[2-(4-methylpiperazin-1-yl)ethoxy]-5-tetrahydropyran-4-yloxyquinazoline] | very stable in the absence of water; also recorded: prone to convert to AZD0530 trihydrate during storage if substantially anhydrous storage conditions are not maintained | 
